According to US6358885B1, “Substituted phenylheterocyclic herbicides” (Mississippi State University, priority 1992, dated 2002):

What was measured:
rape = experiment: Test F preemergence/postemergence greenhouse plant response rating 0 to 100; format: in vivo, Brassica napus; conditions: POSTEMERGENCE, 0 to 100 scale
Description: (§1) Compounds evaluated in this test were formulated in a non-phytoxic solvent and applied to the soil surface before plant seedlings emerged (preemergence application) and to plants that were in the one-to-four leaf stage (postemergence application). A sandy loam soil was used for the preemergence test while a mixture of sandy loam soil and greenhouse potting mix in a 60:40 ratio was used for the postemergence test. Test compounds were applied within approximately one day after planting seeds for the preemergence test. Plantings of these crops and weed species were adjusted to produce plants of appropriate size for the postemergence test. All plant species were grown using normal greenhouse practices. Crop and weed species include winter barley (Hordeum vulgare cv. ‘Igri’), blackgrass (Alopecurus myosuroides), chickweed (Stellaria media), downy brome (Bromus tectorum), field violet (Viola arvensis), galium (Galium aparine), green foxtail (Setaria viridis), kochia (Kochia scoparia), lambsquarters (Chenopodium album), speedwell (Veronica persica), rape (Brassica napus), ryegrass (Lolium multiflorum), sugar beet (Beta vulgaris cv. ‘USl’), sunflower (Helianthus annuus cv. ‘Russian Giant’), spring wheat (Triticum aestivum cv. ‘ERA’), winter wheat (Triticum aestivum cv. ‘Talent’), wild buckwheat (Polygonum convolvulus), wild mustard (Sinapis arvensis), wild oat (Avena fatua), and wild radish (Raphanus raphanistrum). Blackgrass, galium and wild oat were treated at two growth stages. […] Treated plants and untreated controls were maintained in a greenhouse for approximately 21 to 28 days, after which all treated plants were compared to untreated controls and visually evaluated. […] A dash response (-) means no test result.

ryegrass = experiment: as above; format: in vivo, Lolium multiflorum; conditions: POSTEMERGENCE, 0 to 100 scale
Description: as §1

Japonica rice [1] = experiment: Test D paddy water application plant response rating 0 to 100; format: in vivo, Oryza sativa; conditions: 0 to 100 scale, approx. 21 days
Method in brief: (§2)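 Pots are part-filled with silt loam and saturated with water. After planting, the water is raised to 3 cm above the soil and held there. Formulated compound goes straight into the paddy water, and plants are scored visually against controls after about 21 days.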

sunflower = experiment: Test F preemergence/postemergence greenhouse plant response rating 0 to 100; format: in vivo, Helianthus annuus cv. ‘Russian Giant’; conditions: POSTEMERGENCE, 0 to 100 scale
Description: as §1

sugar beet = experiment: as above; format: in vivo, Beta vulgaris cv. ‘USl’; conditions: POSTEMERGENCE, 0 to 100 scale
Description: as §1

umbrella sedge = experiment: Test D paddy water application plant response rating 0 to 100; format: in vivo, Cyperus difformis; conditions: 0 to 100 scale, approx. 21 days
Method in brief: as §2

green foxtail = experiment: Test F preemergence/postemergence greenhouse plant response rating 0 to 100; format: in vivo, Setaria viridis; conditions: POSTEMERGENCE, 0 to 100 scale
Description: as §1

waterchestnut = experiment: Test D paddy water application plant response rating 0 to 100; format: in vivo, Eleocharis spp.; conditions: 0 to 100 scale, approx. 21 days
Method in brief: as §2

barnyardgrass [2] = experiment: Test E paddy water application plant response rating 0 to 100; format: in vivo, Echinochloa crus-galli; conditions: Flood, 0 to 100 scale, approx. 21 days
Method in brief: (§3)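 Greenhouse paddy test: flooded pots of silt loam (water 2 cm over soil) received the solvent-formulated chemical directly in the water.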

barnyardgrass [3] = experiment: Test D paddy water application plant response rating 0 to 100; format: in vivo, Echinochloa crus-galli; conditions: 0 to 100 scale, approx. 21 days
Method in brief: as §2

Japonica rice [4] = experiment: Test E paddy water application plant response rating 0 to 100; format: in vivo, oryza sativa; conditions: Flood, 0 to 100 scale, approx. 21 days
Method in brief: as §3

field violet = experiment: Test F preemergence/postemergence greenhouse plant response rating 0 to 100; format: in vivo, Viola arvensis; conditions: POSTEMERGENCE, 0 to 100 scale
Description: as §1

duck salad = experiment: Test D paddy water application plant response rating 0 to 100; format: in vivo, Heteranthera limosa; conditions: 0 to 100 scale, approx. 21 days
Method in brief: as §2

arrowhead = experiment: as above; format: in vivo, Sagittaria spp.; conditions: 0 to 100 scale, approx. 21 days
Method in brief: as §2

C#CC(C)Oc1cc(-c2nn3c(c2Cl)CCCC3)c(F)cc1Cl (stereo not shown) [Compound 36]
Rape plant response rating (rape; Rate 8 g/ha): 40 | Rape plant response rating (rape; Rate 16 g/ha): 100 | Rape plant response rating (rape; Rate 32 g/ha): 100 | Ryegrass plant response rating (ryegrass; Rate 4 g/ha): 0 | Ryegrass plant response rating (ryegrass; Rate 8 g/ha): 10 | Ryegrass plant response rating (ryegrass; Rate 16 g/ha): 20 | Ryegrass plant response rating (ryegrass; Rate 32 g/ha): 35 | Japonica rice plant response rating (Japonica rice [1]; Rate 4 g/ha): 10 | Japonica rice plant response rating (Japonica rice [1]; Rate 8 g/ha): 10 | Japonica rice plant response rating (Japonica rice [1]; Rate 16 g/ha): 15 | Japonica rice plant response rating (Japonica rice [1]; Rate 32 g/ha): 20 | Japonica rice plant response rating (Japonica rice [1]; Rate 64 g/ha): 25 | Sunflower plant response rating (sunflower; Rate 4 g/ha): 0 | Sunflower plant response rating (sunflower; Rate 8 g/ha): 40 | Sunflower plant response rating (sunflower; Rate 16 g/ha): 50 | Sunflower plant response rating (sunflower; Rate 32 g/ha): 60 | Sugar beet plant response rating (sugar beet; Rate 4 g/ha): 100 | Sugar beet plant response rating (sugar beet; Rate 8 g/ha): 100 | Sugar beet plant response rating (sugar beet; Rate 16 g/ha): 100 | Sugar beet plant response rating (sugar beet; Rate 32 g/ha): 100 | Umbrella sedge plant response rating (umbrella sedge; Rate 4 g/ha): 0 | Umbrella sedge plant response rating (umbrella sedge; Rate 8 g/ha): 0 | Umbrella sedge plant response rating (umbrella sedge; Rate 16 g/ha): 60 | Umbrella sedge plant response rating (umbrella sedge; Rate 32 g/ha): 70 | Umbrella sedge plant response rating (umbrella sedge; Rate 64 g/ha): 80 | Green foxtail plant response rating (green foxtail; Rate 4 g/ha): 0 | Green foxtail plant response rating (green foxtail; Rate 8 g/ha): 40 | Green foxtail plant response rating (green foxtail; Rate 16 g/ha): 50 | Green foxtail plant response rating (green foxtail; Rate 32 g/ha): 50 | Waterchestnut plant response rating (waterchestnut; Rate 4 g/ha): 10 | Waterchestnut plant response rating (waterchestnut; Rate 8 g/ha): 10 | Waterchestnut plant response rating (waterchestnut; Rate 16 g/ha): 20 | Waterchestnut plant response rating (waterchestnut; Rate 32 g/ha): 20 | Waterchestnut plant response rating (waterchestnut; Rate 64 g/ha): 20 | Barnyardgrass 2 plant response rating (barnyardgrass [2]; Rate 8 g/ha): 30 | Barnyardgrass 3 plant response rating (barnyardgrass [2]; Rate 8 g/ha): 30 | Barnyardgrass 2 plant response rating (barnyardgrass [2]; Rate 16 g/ha): 40 | Barnyardgrass 3 plant response rating (barnyardgrass [2]; Rate 16 g/ha): 35 | Barnyardgrass 2 plant response rating (barnyardgrass [2]; Rate 32 g/ha): 55 | Barnyardgrass 3 plant response rating (barnyardgrass [2]; Rate 32 g/ha): 40 | Barnyardgrass 2 plant response rating (barnyardgrass [2]; Rate 64 g/ha): 65 | Barnyardgrass 3 plant response rating (barnyardgrass [2]; Rate 64 g/ha): 50 | Barnyardgrass 2 plant response rating (barnyardgrass [2]; Rate 125 g/ha): 100 | Barnyardgrass 3 plant response rating (barnyardgrass [2]; Rate 125 g/ha): 75 | Barnyardgrass 2 plant response rating (barnyardgrass [3]; Rate 4 g/ha): 30 | Barnyardgrass 2 plant response rating (barnyardgrass [3]; Rate 8 g/ha): 65 | Barnyardgrass 2 plant response rating (barnyardgrass [3]; Rate 16 g/ha): 80 | Barnyardgrass 2 plant response rating (barnyardgrass [3]; Rate 32 g/ha): 100 | Barnyardgrass 2 plant response rating (barnyardgrass [3]; Rate 64 g/ha): 100 | Japonica 1 plant response rating (Japonica rice [4]; Rate 8 g/ha): 15 | Japonica 2 plant response rating (Japonica rice [4]; Rate 8 g/ha): 10 | Japonica 1 plant response rating (Japonica rice [4]; Rate 16 g/ha): 20 | Japonica 2 plant response rating (Japonica rice [4]; Rate 16 g/ha): 0 | Japonica 1 plant response rating (Japonica rice [4]; Rate 32 g/ha): 20 | Japonica 2 plant response rating (Japonica rice [4]; Rate 32 g/ha): 15 | Japonica 1 plant response rating (Japonica rice [4]; Rate 64 g/ha): 25 | Japonica 2 plant response rating (Japonica rice [4]; Rate 64 g/ha): 15 | Japonica 1 plant response rating (Japonica rice [4]; Rate 125 g/ha): 25 | Japonica 2 plant response rating (Japonica rice [4]; Rate 125 g/ha): 20 | Field violet plant response rating (field violet; Rate 4 g/ha): 100 | Field violet plant response rating (field violet; Rate 8 g/ha): 100 | Field violet plant response rating (field violet; Rate 16 g/ha): 100 | Field violet plant response rating (field violet; Rate 32 g/ha): 100 | Duck salad plant response rating (duck salad; Rate 4 g/ha): 0 | Duck salad plant response rating (duck salad; Rate 8 g/ha): 0 | Duck salad plant response rating (duck salad; Rate 16 g/ha): 20 | Duck salad plant response rating (duck salad; Rate 32 g/ha): 30 | Duck salad plant response rating (duck salad; Rate 64 g/ha): 60 | Arrowhead plant response rating (arrowhead; Rate 4 g/ha): 0 | Arrowhead plant response rating (arrowhead; Rate 8 g/ha): 0 | Arrowhead plant response rating (arrowhead; Rate 16 g/ha): 0 | Arrowhead plant response rating (arrowhead; Rate 32 g/ha): 0 | Arrowhead plant response rating (arrowhead; Rate 64 g/ha): 0
